Reference: patent US12187773B2, “Modified GIP peptide analogues” (Antag Therapeutics ApS, priority 2018, dated 2025)
*1 amine or outer side, *2 acyl side, *3 side chain or, on linkers, in order; H or OH if unused. Where a SMILES comes first, the peptide text is derived from it. Side-chain parts run from the residue outwards. [ ]: non-standard residue; d: D form. The star is where a group is joined. C18 diacid = O=C(O)CCCCCCCCCCCCCCCCC(=O)*; C16 diacid = O=C(O)CCCCCCCCCCCCCCC(=O)*; γGlu = O=C(O)[C@H](CCC(=O)[*:2])N[*:1]; pGlu = O=C1CC[C@@H](C(=O)O)N1; AEEA = NCCOCCOCC(=O)O

Experiments:
Type in all cases: cell-based
[1] = target: T1, human GIP receptor (Homo sapiens, UniProt P48546); experiment: cAMP accumulation, antagonism (DiscoveRx HitHunter cAMP XS assay); design: host or cells: COS-7 (transient, calcium phosphate; pCMV-Script vector); conditions: Table 1B, DiscoveRx; for cAMP antagonism, % inhib: COS-7 cells, % inhibition of Emax; for IC50: cAMP antagonism, nM (IC50), transiently transfected COS-7 cells
T1 sequence (P48546 22-466): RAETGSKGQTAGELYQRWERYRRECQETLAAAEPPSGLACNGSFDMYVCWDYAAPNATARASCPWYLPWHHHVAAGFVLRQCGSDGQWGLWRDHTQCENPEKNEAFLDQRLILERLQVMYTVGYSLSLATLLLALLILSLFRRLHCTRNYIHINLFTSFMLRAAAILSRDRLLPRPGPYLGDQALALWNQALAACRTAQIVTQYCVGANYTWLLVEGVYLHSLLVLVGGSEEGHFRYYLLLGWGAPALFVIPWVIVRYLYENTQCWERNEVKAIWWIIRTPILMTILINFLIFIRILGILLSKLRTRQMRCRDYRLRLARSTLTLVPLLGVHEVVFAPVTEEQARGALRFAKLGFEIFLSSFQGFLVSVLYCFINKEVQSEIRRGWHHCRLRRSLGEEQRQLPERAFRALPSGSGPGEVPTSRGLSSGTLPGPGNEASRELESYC
Description: Transient transfected COS-7 cells expressing the human GIP receptor were seeded in white 96-well plates with a density of 3.5*10^4/well. The day after, the cells were washed twice with Hepes buffered saline (HBS) buffer and incubated with HBS and 1 mM 3-isobutyl-1-methylxanthine (IBMX) for 30 min at 37° C. To test for agonistic properties, ligands were added and incubated for 30 min at 37° C. In order to test for antagonistic properties, the cells were preincubated with the antagonists for 10 min prior to the addition of the agonist and subsequent incubated for 20 additional min. The HitHunter™ cAMP XS assay (DiscoveRx) was carried out according to the manufacturer's instructions.
In order to develop a GIP receptor antagonist with improved antagonistic properties, individual amino acid substitutions were conducted on GIP(3-30)NH2 and in particular at positions: 16, 18, 30 or 3, 16, 18, 30. The obtained peptides were lipidated at position 18 directly or via a linker. Both the agonistic and antagonistic profiles of the compounds were tested in cAMP accumulation experiments done in transiently transfected COS-7 cells expressing the human GIP receptor. To investigate if these mutated analogues still retained their antagonistic properties, their ability to inhibit a GIP-mediated cAMP response corresponding to 50-80% of maximum activation was examined.

[2] = target: T1, human GIP receptor; experiment: cAMP antagonism (CisBio cAMP Dynamic 2 HTRF assay); design: pCMV-Script vector; conditions: Table 1C, CisBio, HEK-293 cells; for IC50: cAMP antagonism, nM (IC50), agonist GIP1-42 at EC50
Method in brief: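 Four-parameter fits of cAMP dose-response gave pIC50. cAMP fall was quantified by HTRF competition, ratio 665/620 nm after 60 min at room temperature, against a cAMP standard curve.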

[3] = target: T1, human GIP receptor; experiment: cAMP agonism (CisBio cAMP Dynamic 2 HTRF assay); conditions: HEK293, read-out: cAMP agonism, % Efficacy, Table 1C, HEK-293 cells
Description: To test for agonistic properties at the GIP receptor, compounds were diluted and added to cells as described above and incubated for 30 min at 37° C. The resulting increase in intracellular cAMP was determined using the CisBio cAMP Dynamic 2 HTRF Assay Kit as described above.

[4] = target: T1, human GIP receptor; experiment: cAMP accumulation, agonism (DiscoveRx HitHunter cAMP XS assay); design: host or cells: COS-7 (transient, calcium phosphate; pCMV-Script vector); conditions: Table 1B; DiscoveRx; COS-7 cells
Method in brief: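 cAMP accumulation measured by HitHunter cAMP XS in COS-7 cells transiently expressing human GIP receptor, after 30 min in HBS with 1 mM IBMX at 37 °C. Antagonists preincubated 10 min before GIP giving 50-80% of maximum, then 20 min more; agonist mode used 30 min ligand exposure.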

SMILES	cAMP antagonism, % inhib [1]	cAMP antagonism, % inhib [2]	IC50 [2]	Emax [3]	cAMP agonism, Emax [4]	IC50 [1]
CC[C@H](C)[C@H](NC(=O)[C@H](CO)NC(=O)[C@H](Cc1ccc(O)cc1)NC(=O)[C@H](CC(=O)O)NC(=O)[C@H](CO)NC(=O)[C@@H](NC(=O)[C@H](Cc1ccccc1)NC(=O)[C@@H](NC(=O)CNC(=O)[C@@H](N)CCC(=O)O)[C@@H](C)O)[C@@H](C)CC)C(=O)N[C@@H](C)C(=O)N[C@@H](CCSC)C(=O)N[C@@H](CC(=O)O)C(=O)N[C@@H](CCCNC(=N)N)C(=O)N[C@H](C(=O)N[C@@H](CCCCNC(=O)COCCOCCNC(=O)COCCOCCNC(=O)COCCOCCNC(=O)CC[C@H](NC(=O)CCCCCCCCCCCCCCC(=O)O)C(=O)O)C(=O)N[C@@H](CCC(N)=O)C(=O)N[C@@H](CCC(N)=O)C(=O)N[C@@H](CC(=O)O)C(=O)N[C@@H](Cc1ccccc1)C(=O)N[C@H](C(=O)N[C@@H](CC(N)=O)C(=O)N[C@@H](Cc1c[nH]c2ccccc12)C(=O)N[C@@H](CC(C)C)C(=O)N[C@@H](CC(C)C)C(=O)N[C@@H](C)C(=O)N[C@@H](CCC(N)=O)C(=O)N[C@@H](CCCNC(=N)N)C(N)=O)C(C)C)[C@@H](C)CC [AT375] (H-EGTFISDYSIAMDRIK([AEEA-AEEA-AEEA-γGlu-C16 diacid])QQDFVNWLLAQR-NH2; N-terminus assumed)	100%	83%	23.3 nM	6%	No Agonism	–
CC[C@H](C)[C@H](NC(=O)[C@H](CO)NC(=O)[C@H](Cc1ccc(O)cc1)NC(=O)[C@H](CC(=O)O)NC(=O)[C@H](CO)NC(=O)[C@@H](NC(=O)[C@H](Cc1ccccc1)NC(=O)[C@@H](NC(=O)CNC(=O)[C@@H](N)CCC(=O)O)[C@@H](C)O)[C@@H](C)CC)C(=O)N[C@@H](C)C(=O)N[C@@H](CCSC)C(=O)N[C@@H](CC(=O)O)C(=O)N[C@@H](CCCNC(=N)N)C(=O)N[C@H](C(=O)N[C@@H](CCCCNC(=O)COCCOCCNC(=O)CC[C@H](NC(=O)CCCCCCCCCCCCCCCCC(=O)O)C(=O)O)C(=O)N[C@@H](CCC(N)=O)C(=O)N[C@@H](CCC(N)=O)C(=O)N[C@@H](CC(=O)O)C(=O)N[C@@H](Cc1ccccc1)C(=O)N[C@H](C(=O)N[C@@H](CC(N)=O)C(=O)N[C@@H](Cc1c[nH]c2ccccc12)C(=O)N[C@@H](CC(C)C)C(=O)N[C@@H](CC(C)C)C(=O)N[C@@H](C)C(=O)N[C@@H](CCC(N)=O)C(=O)N[C@@H](CCCNC(=N)N)C(N)=O)C(C)C)[C@@H](C)CC [AT376] (HELM PEPTIDE1{E.G.T.F.I.S.D.Y.S.I.A.M.D.R.I.K.Q.Q.D.F.V.N.W.L.L.A.Q.R.[am]}|PEPTIDE2{[O=C(O)CCCCCCCCCCCCCCCCC(=O)[*:2]].[gGlu].[O=C(COCCOCCN[*:1])[*:2]]}$PEPTIDE1,PEPTIDE2,16:R3-3:R2$$$V2.0; N-terminus assumed)	90%	87%	6.81 nM	0%	No Agonism	19 nM
CC[C@H](C)[C@H](NC(=O)[C@H](CO)NC(=O)[C@H](Cc1ccc(O)cc1)NC(=O)[C@H](CC(=O)O)NC(=O)[C@H](CO)NC(=O)[C@@H](NC(=O)[C@H](Cc1ccccc1)NC(=O)[C@@H](NC(=O)CNC(=O)[C@@H](N)CCC(=O)O)[C@@H](C)O)[C@@H](C)CC)C(=O)N[C@@H](C)C(=O)N[C@@H](CCSC)C(=O)N[C@@H](CC(=O)O)C(=O)N[C@@H](CCCNC(=N)N)C(=O)N[C@H](C(=O)N[C@@H](CCCCNC(=O)COCCOCCNC(=O)COCCOCCNC(=O)CC[C@H](NC(=O)CCCCCCCCCCCCCCCCC(=O)O)C(=O)O)C(=O)N[C@@H](CCC(N)=O)C(=O)N[C@@H](CCC(N)=O)C(=O)N[C@@H](CC(=O)O)C(=O)N[C@@H](Cc1ccccc1)C(=O)N[C@H](C(=O)N[C@@H](CC(N)=O)C(=O)N[C@@H](Cc1c[nH]c2ccccc12)C(=O)N[C@@H](CC(C)C)C(=O)N[C@@H](CC(C)C)C(=O)N[C@@H](C)C(=O)N[C@@H](CCC(N)=O)C(=O)N[C@@H](CCCNC(=N)N)C(N)=O)C(C)C)[C@@H](C)CC [AT377] (H-EGTFISDYSIAMDRIK([AEEA-AEEA-γGlu-C18 diacid])QQDFVNWLLAQR-NH2; N-terminus assumed)	100%	90%	–	0%	No Agonism	19 nM
CC[C@H](C)[C@H](NC(=O)[C@H](CO)NC(=O)[C@H](Cc1ccc(O)cc1)NC(=O)[C@H](CC(=O)O)NC(=O)[C@H](CO)NC(=O)[C@@H](NC(=O)[C@H](Cc1ccccc1)NC(=O)[C@@H](NC(=O)CNC(=O)[C@@H](N)CCC(=O)O)[C@@H](C)O)[C@@H](C)CC)C(=O)N[C@@H](C)C(=O)N[C@@H](CCSC)C(=O)N[C@@H](CC(=O)O)C(=O)N[C@@H](CCCNC(=N)N)C(=O)N[C@H](C(=O)N[C@@H](CCCCNC(=O)COCCOCCNC(=O)COCCOCCNC(=O)COCCOCCNC(=O)CC[C@H](NC(=O)CCCCCCCCCCCCCCCCC(=O)O)C(=O)O)C(=O)N[C@@H](CCC(N)=O)C(=O)N[C@@H](CCC(N)=O)C(=O)N[C@@H](CC(=O)O)C(=O)N[C@@H](Cc1ccccc1)C(=O)N[C@H](C(=O)N[C@@H](CC(N)=O)C(=O)N[C@@H](Cc1c[nH]c2ccccc12)C(=O)N[C@@H](CC(C)C)C(=O)N[C@@H](CC(C)C)C(=O)N[C@@H](C)C(=O)N[C@@H](CCC(N)=O)C(=O)N[C@@H](CCCNC(=N)N)C(N)=O)C(C)C)[C@@H](C)CC [AT378] (H-EGTFISDYSIAMDRIK([AEEA-AEEA-AEEA-γGlu-C18 diacid])QQDFVNWLLAQR-NH2; N-terminus assumed)	92%	90%	–	0%	No Agonism	16 nM
CC[C@H](C)[C@H](NC(=O)[C@H](CO)NC(=O)[C@H](Cc1ccc(O)cc1)NC(=O)[C@H](CC(=O)O)NC(=O)[C@H](CO)NC(=O)[C@@H](NC(=O)[C@H](Cc1ccccc1)NC(=O)[C@@H](NC(=O)CNC(=O)[C@@H]1CCC(=O)N1)[C@@H](C)O)[C@@H](C)CC)C(=O)N[C@@H](C)C(=O)N[C@@H](CCSC)C(=O)N[C@@H](CC(=O)O)C(=O)N[C@@H](CCCNC(=N)N)C(=O)N[C@H](C(=O)N[C@@H](CCCCNC(=O)CCCCCCCCCCCCCCC(=O)O)C(=O)N[C@@H](CCC(N)=O)C(=O)N[C@@H](CCC(N)=O)C(=O)N[C@@H](CC(=O)O)C(=O)N[C@@H](Cc1ccccc1)C(=O)N[C@H](C(=O)N[C@@H](CC(N)=O)C(=O)N[C@@H](Cc1c[nH]c2ccccc12)C(=O)N[C@@H](CC(C)C)C(=O)N[C@@H](CC(C)C)C(=O)N[C@@H](C)C(=O)N[C@@H](CCC(N)=O)C(=O)N[C@@H](CCCNC(=N)N)C(N)=O)C(C)C)[C@@H](C)CC [AT390] ([pGlu]GTFISDYSIAMDRIK(C16 diacid)QQDFVNWLLAQR-NH2)	100%	81%	15.9 nM	4%	No Agonism	1 nM
